Measured values taken from PMC6331789, “Phytochemicals from Ruta graveolens Activate TAS2R Bitter Taste Receptors and TRP Channels Involved in Gustation and Nociception” (Molecules, 2015).

What was measured:
TRPM8 [1] = settings: cited from earlier work
TAS2R14 [2] = target: T1, TAS2R14 (Homo sapiens, UniProt Q9NYV8); assay: In vitro calcium imaging assay on cloned TAS2R14 in transfected HEK293T cells; assay type: cell-based
T1 construct: expressed in transfected cells; host or cells: HEK293T
T1 sequence (Q9NYV8 1-317): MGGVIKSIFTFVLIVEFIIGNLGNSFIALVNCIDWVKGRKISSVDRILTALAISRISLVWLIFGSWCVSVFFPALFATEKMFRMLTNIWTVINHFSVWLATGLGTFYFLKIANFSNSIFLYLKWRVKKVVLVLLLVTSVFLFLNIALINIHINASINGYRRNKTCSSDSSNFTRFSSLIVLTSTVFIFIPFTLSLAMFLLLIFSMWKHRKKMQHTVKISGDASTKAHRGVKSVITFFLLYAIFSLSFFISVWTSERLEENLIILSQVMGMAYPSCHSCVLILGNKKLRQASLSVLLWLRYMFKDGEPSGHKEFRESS
Description: (§1) Pure phytochemicals were submitted to in vitro assays with a platform of twenty cloned receptors of the bitter taste TAS2R family and four receptors of the TRP family related to the perception of taste and somatosensory sensations. All experiments have been repeated three times, each time with four replicates. […] For simplicity, only those bitter taste receptors having reproducible positive assay, namely TASR10, 14 and 49, are reported (Table 1).
(§2) For those compounds showing activity on one or more receptor(s), the concentration/response curves were plotted and the EC50 calculated.
(§3) For the biological tests, several compounds were purchased as references from different suppliers (Sigma Aldrich, ChromaDex, Irvine, CA, USA, and Tocris Bioscience, Bristol, UK) and dissolved in assay buffer (130 mM NaCl, 5 mM KCl, 1 mM MgCl2, 2 mM CaCl2, 5 mM NaHCO3 and 20 mM HEPES, pH 7.4) or in a mixture of assay buffer and DMSO, never exceeding a final DMSO concentration of 0.5% (v/v) to avoid toxic effects and possible artefacts on transfected cells.
(§4) All human TAS2R and G15Gi1 cDNAs were produced as reported in Bassoli et al. cDNAs for human TRPA1-M5-M8-V1-V4 were cloned into a pcDNA6 expression vector (Invitrogen-Thermo Fisher, Waltham, MA, USA).
(§5) All experiments were performed using HEK293T cells (ATCC).
(§6) For the bitter platform experiments, cells were cultured, transfected and analyzed as previously described.
(§7) For the bitter platform experiments, data analyses were performed as previously described.
(§8) For the calculation of concentration-response curves, responses were calculated as the difference between maximal and minimal relative fluorescence unit (RFU) values in a selected time window (11–60 s) and were normalized to the basal well fluorescence (Time Point 1, before compound injection) in order to compensate for differences in cell density (∆F/F0). All of the experiments have been repeated three times, each time with four replicates. All of the results are averages of at least four replicates. Raw data are available in Supplementary Material, Figures S3–S6.

TRPM5 = target: T2, TRPM5 (Homo sapiens, UniProt Q9NZQ8); assay: In vitro membrane potential dye assay (FLIPR) on HEK293T cells stably overexpressing TRPM5; assay type: cell-based; settings: concentration/response curve; values with ≥ estimated
T2 construct: expressed in transfected cells
T2 sequence (Q9NZQ8 1-1165): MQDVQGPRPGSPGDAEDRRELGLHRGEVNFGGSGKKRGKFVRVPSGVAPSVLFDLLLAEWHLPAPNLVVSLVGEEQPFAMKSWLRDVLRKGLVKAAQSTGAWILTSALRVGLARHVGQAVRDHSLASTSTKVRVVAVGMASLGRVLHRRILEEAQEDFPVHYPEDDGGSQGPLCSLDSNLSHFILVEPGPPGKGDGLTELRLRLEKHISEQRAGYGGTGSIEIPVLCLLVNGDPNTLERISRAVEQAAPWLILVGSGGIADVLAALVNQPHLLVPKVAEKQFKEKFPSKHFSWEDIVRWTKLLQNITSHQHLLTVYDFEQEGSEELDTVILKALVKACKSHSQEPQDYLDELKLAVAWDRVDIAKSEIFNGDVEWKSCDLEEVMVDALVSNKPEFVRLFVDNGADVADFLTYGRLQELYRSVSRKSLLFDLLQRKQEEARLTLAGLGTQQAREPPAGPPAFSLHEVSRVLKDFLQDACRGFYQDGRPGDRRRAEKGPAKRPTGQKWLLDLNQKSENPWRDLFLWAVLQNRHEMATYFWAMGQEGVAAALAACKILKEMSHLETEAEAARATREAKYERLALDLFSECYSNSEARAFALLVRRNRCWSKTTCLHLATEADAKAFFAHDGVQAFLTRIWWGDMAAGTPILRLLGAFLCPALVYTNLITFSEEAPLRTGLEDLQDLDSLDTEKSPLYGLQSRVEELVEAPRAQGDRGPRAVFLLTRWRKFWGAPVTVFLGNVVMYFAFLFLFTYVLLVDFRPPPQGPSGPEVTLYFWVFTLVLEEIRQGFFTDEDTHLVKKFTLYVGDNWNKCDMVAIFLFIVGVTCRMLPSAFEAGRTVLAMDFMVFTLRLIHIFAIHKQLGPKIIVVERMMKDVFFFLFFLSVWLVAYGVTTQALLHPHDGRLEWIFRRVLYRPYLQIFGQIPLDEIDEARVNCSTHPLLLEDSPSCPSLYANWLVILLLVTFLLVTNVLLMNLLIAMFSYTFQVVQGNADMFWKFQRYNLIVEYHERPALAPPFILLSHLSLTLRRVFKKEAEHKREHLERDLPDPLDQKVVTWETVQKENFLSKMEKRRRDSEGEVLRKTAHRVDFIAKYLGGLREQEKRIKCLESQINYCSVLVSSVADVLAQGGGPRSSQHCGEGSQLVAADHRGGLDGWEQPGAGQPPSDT
Description: as §1, §2, §3, §4, §5
(§9) For TRP platform experiments, cells were cultured in MEM/EBSS medium (ECB2071L EuroClone, Milan, Italy) plus 10% (v/v) fetal bovine serum (FBS) (26400-044 Gibco, Karlsruhe, Germany) and 1% (v/v) Pen/Strep 10K/10K stock (17-602E Lonza, Basel, Switzerland). Stable cell lines were generated overexpressing each TRP channel, and clones were selected with 500 µg/mL of G418 (ant-gn-5 Invivogen, Karlsruhe, Germany). To analyze TRP receptor responses, cells were plated at a concentration of 20,000 cells/well in 384-well plates (GR-4330 Twin Helix srl, Milan, Italy). Cellular responses were measured 24 h after seeding.
(§10) For TRPM5 experiments, cells were loaded 24 h after seeding with a Membrane Potential Dye (R8034 MDC) solution in assay buffer according to the manufacturer’s instructions and incubated at 37 °C for 1 h before acquisition. All experiments were performed using a fluorometric imaging plate reader (FLIPR^TETRA, Molecular Devices equipped with ICCD Camera from Stanford Photonics, INC, (Palo Alto, CA, USA) and kinetics were visualized with Molecular Devices’ Screenworks 3.0 (Sunnyvale, CA, USA).
as §8

TAS2R14 [3] = settings: cited from earlier work
TAS2R10 [4] = settings: cited from earlier work; for Selective agonism of TAS2R10 (literature): described in the literature, no reference given
TAS2R10 [5] = target: T3, TAS2R10 (Homo sapiens, UniProt Q9NYW0); assay: In vitro calcium imaging assay on cloned TAS2R10 in transfected HEK293T cells; assay type: cell-based; settings: concentration/response curve; values with ≥ estimated, curve did not saturate; read-out: EC50 TAS2R10
T3 construct: expressed in transfected cells; host or cells: HEK293T
T3 sequence (Q9NYW0 1-307): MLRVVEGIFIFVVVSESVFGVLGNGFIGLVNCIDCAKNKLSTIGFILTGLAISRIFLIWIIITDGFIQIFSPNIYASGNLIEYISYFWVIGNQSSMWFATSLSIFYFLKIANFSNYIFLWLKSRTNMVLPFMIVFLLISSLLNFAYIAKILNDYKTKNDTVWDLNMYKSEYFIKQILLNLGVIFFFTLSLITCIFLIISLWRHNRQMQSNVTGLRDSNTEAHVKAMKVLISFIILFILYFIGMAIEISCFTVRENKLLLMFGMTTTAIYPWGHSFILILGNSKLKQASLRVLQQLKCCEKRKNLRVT
Description: as §1, §2, §3, §4, §5, §6, §7, §8

TAS2R49 [6] = target: T4, TAS2R49 (Homo sapiens, UniProt P59543); assay: In vitro calcium imaging assay on cloned TAS2R49 in transfected HEK293T cells; assay type: cell-based; settings: concentration/response curve; read-out: EC50 TAS2R49
T4 construct: expressed in transfected cells; host or cells: HEK293T
T4 sequence (P59543 1-309): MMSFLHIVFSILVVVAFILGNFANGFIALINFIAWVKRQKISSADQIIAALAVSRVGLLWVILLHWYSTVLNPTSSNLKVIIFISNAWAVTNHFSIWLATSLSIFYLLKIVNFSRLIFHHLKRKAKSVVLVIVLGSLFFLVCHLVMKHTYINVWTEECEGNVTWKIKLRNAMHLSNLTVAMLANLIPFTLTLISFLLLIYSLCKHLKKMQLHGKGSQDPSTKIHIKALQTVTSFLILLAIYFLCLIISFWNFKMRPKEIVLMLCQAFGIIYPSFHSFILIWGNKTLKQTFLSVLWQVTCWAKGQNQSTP
Description: as §1, §2, §3, §4, §5, §6, §7, §8

TRPM8 [7] = target: T5, TRPM8 (Homo sapiens, UniProt Q7Z2W7); assay: In vitro Fluo8-NW calcium assay (FLIPR) on HEK293T cells stably overexpressing TRPM8; assay type: cell-based; settings: concentration/response curve
T5 construct: expressed in transfected cells
T5 sequence (Q7Z2W7 whole entry): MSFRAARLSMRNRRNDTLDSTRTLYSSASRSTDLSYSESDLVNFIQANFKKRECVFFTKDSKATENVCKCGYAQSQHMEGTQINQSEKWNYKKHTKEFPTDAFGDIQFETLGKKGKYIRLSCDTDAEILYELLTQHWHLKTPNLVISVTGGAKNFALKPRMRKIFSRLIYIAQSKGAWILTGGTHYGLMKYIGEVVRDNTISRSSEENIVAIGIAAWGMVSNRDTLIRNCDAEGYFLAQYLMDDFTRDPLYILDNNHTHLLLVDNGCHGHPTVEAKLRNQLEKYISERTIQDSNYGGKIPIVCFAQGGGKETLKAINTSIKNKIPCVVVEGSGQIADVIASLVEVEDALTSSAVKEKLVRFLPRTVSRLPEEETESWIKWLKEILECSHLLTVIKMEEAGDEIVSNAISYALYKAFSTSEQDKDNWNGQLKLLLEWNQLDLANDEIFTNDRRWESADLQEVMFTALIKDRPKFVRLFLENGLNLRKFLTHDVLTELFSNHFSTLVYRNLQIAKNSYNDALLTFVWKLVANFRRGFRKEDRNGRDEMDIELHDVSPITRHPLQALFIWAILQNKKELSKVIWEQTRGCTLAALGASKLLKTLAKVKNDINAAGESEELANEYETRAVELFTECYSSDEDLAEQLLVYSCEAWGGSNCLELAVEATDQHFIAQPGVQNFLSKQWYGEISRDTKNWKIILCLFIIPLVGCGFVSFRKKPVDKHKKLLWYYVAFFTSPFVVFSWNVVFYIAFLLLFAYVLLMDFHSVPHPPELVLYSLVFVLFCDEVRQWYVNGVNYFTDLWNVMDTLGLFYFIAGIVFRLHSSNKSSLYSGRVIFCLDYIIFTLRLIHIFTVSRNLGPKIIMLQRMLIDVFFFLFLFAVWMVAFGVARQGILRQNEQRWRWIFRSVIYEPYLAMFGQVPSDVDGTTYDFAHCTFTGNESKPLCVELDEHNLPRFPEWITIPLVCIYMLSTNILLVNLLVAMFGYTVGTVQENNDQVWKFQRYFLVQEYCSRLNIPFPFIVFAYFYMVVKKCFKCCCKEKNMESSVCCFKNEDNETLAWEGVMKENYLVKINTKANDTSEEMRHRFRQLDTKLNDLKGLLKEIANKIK
Description: as §1, §2, §3, §4, §5, §9
For TRPA1-M8-V1-V4 experiments, a solution of Fluo8-NW calcium-sensitive dye (36316 AAT BioQuest, Sunnyvale, CA, USA) was prepared using the assaybuffer and diluting the kit components 1:2 according to the manufacturer’s instructions. Twenty-four hours after seeding, cells were incubated one hour at RT, loaded with 40 µL of Fluo8-NW solution for each well and incubated again for one hour at RT before data acquisition.
as §10, §8

TAS2R49 [8] = system: TAS2R49; design: method as in PMID 20022913; settings: cited from earlier work
bitter taste receptor = system: bitter taste receptor; design: method as in PMID 24117141; settings: cited from earlier work

CC[C@H]1CC2CN3CCc4c([nH]c5ccc(OC)cc45)[C@](C(=O)OC)(C2)[C@H]13 (stereo in doubt) [voacangine]
TRPM8 inhibition (literature) (TRPM8 [1]): potent TRPM8 inhibitor

COc1cccc2c1cc([N+](=O)[O-])c1c(C(=O)O)cc3c(c12)OCO3 [Aristolochic Acid, reference compound]
EC50 (TAS2R14 [2]): 2.3 µM

C[N+](C)(C)CCOC(N)=O [Carbachol, reference compound]
EC50 (TRPM5): 4.3 µM

O=c1ccc2ccccc2o1 [Coumarin]
Agonism of TAS2R14 (literature) (TAS2R14 [3]): known agonist
Agonism of TAS2R10 (literature) (TAS2R10 [4]): known agonist

CC[N+](CC)(CC(=O)Nc1c(C)cccc1C)Cc1ccccc1 [Denatonium Benzoate, reference compound]
EC50 (TAS2R10 [5]): 8.3 µM

Cc1nc2sccn2c(=O)c1CCN1CCC(=C(c2ccc(F)cc2)c2ccc(F)cc2)CC1 [Ritanserin, reference compound]
EC50 (TAS2R49 [6]): 6 µM

CCNC(=O)C1CC(C)CCC1C(C)C (stereo not drawn) [WS3, reference compound]
EC50 (TRPM8 [7]): 4 µM

O=C(O)c1cc(=O)c2c(OCC(O)COc3cccc4oc(C(=O)O)cc(=O)c34)cccc2o1 [cromolyn]
Agonism of TAS2R49 (literature) (TAS2R49 [8]): non-selective agonists

CC(=O)OC(C)(C)/C=C/C(=O)[C@](C)(O)[C@H]1[C@H](O)C[C@@]2(C)[C@@H]3CC=C4[C@@H](C=C(O)C(=O)C4(C)C)[C@]3(C)C(=O)C[C@]12C [cucurbitacin E]
Selective agonism of TAS2R10 (literature) (TAS2R10 [4]): selective agonists

OC(CCCN1CCCCC1)(c1ccccc1)c1ccccc1 [diphenidol]
Agonism of TAS2R49 (literature) (TAS2R49 [8]): non-selective agonists

CC[C@H]1OC(=O)[C@H](C)[C@@H](O[C@H]2C[C@@](C)(OC)[C@@H](O)[C@H](C)O2)[C@H](C)[C@@H](O[C@@H]2O[C@H](C)C[C@H](N(C)C)[C@H]2O)[C@](C)(O)C[C@@H](C)C(=O)[C@H](C)[C@@H](O)[C@]1(C)O [erythromycin]
Selective agonism of TAS2R10 (literature) (TAS2R10 [4]): selective agonists

O=c1cc(-c2ccc(O)c(O)c2)oc2cc(O)cc(O)c12 [luteolin]
Bitter taste receptor activation of flavonoids (literature) (bitter taste receptor): active

COc1ccc2c(c1OC)C(=O)O[C@@H]2[C@H]1c2c(cc3c(c2OC)OCO3)CCN1C [noscapine]
Selective agonism of TAS2R14 (literature) (TAS2R14 [3]; described in the literature, no reference given): selective agonist

O=c1c(O)c(-c2ccc(O)c(O)c2)oc2cc(O)cc(O)c12 [quercetin]
Bitter taste receptor activation of flavonoids (literature) (bitter taste receptor): still active, but with lower efficacy
